# Tested on: H. pylori
# Assay: H. pylori growth on 5% horse blood agar
# Format: cell-based, Helicobacter pylori
# Conditions: versus ∼8 ng/mL of the 10 best MTAN inhibitors
row,Compound,fold weaker than the 10 best MTAN inhibitors (IC90 ratio) [fold]
1,Cc1ncc([N+](=O)[O-])n1CCO [Metronidazole],2000

# Tested on: H. pylori
# Assay: not given
# Conditions: antibiotics used in multidrug therapy and moenomycin A; cited from earlier work
row,Compound,IC90 of current antibiotics against H. pylori
1,Cc1ncc([N+](=O)[O-])n1CCO [Metronidazole],16 000 ng/mL
2,CC[C@H]1OC(=O)[C@H](C)[C@@H](O[C@H]2C[C@@](C)(OC)[C@@H](O)[C@H](C)O2)[C@H](C)[C@@H](O[C@@H]2O[C@H](C)C[C@H](N(C)C)[C@H]2O)[C@](C)(OC)C[C@@H](C)C(=O)[C@H](C)[C@@H](O)[C@]1(C)O [clarithromycin],8000 ng/mL
3,C[C@H]1COc2c(N3CCN(C)CC3)c(F)cc3c(=O)c(C(=O)O)cn1c23 [levofloxacin],1000 ng/mL
4,C=C(C/C=C(\C)CCC=C(C)C)CCC(C)(C)/C=C/CC/C(C)=C\CO[C@H](COP(=O)(O)O[C@H]1O[C@H](C(N)=O)[C@@](C)(O)[C@H](OC(N)=O)[C@H]1O[C@@H]1O[C@H](CO[C@@H]2O[C@H](CO)[C@@H](O)[C@H](O)[C@H]2O)[C@@H](O[C@@H]2O[C@H](C)[C@@H](O[C@@H]3O[C@H](C(=O)NC4=C(O)CCC4=O)[C@H](O)[C@H](O)[C@H]3O)[C@H](O)[C@H]2NC(C)=O)[C@H](O)[C@H]1NC(C)=O)C(=O)O [moenomycin A],2000 ng/mL
5,CN(C)[C@@H]1C(O)=C(C(N)=O)C(=O)[C@@]2(O)C(O)=C3C(=O)c4c(O)cccc4[C@@](C)(O)[C@H]3C[C@@H]12 [tetracycline],500 ng/mL
